From US20240409556A1, “BENZOPIPERAZINE AND RELATED ANALOGS FOR INHIBITING YAP/TAZ-TEAD” (Springworks Therapeutics, Inc., priority 2023, published 2024)

These compounds were tested on YAP/TAZ-TEAD transcription (assay: Reporter gene assay for measuring the inhibition of YAP/TAZ-TEAD transcription (TEAD-responsive element luciferase reporter in Hek293T cells)). Conditions: Homo sapiens, HEK-293T, 24 h, 24 hours incubation.
Assay type: cell-based
Experimental: Example 56: Activity of Compounds of the Disclosure in a Reporter Gene Assay for Measuring the Inhibition of YAP/TAZ-TEAD Transcription
Hek293T cells were cultured in DMEM supplemented with 10% fetal bovine serum, Sodium pyruvate, Sodium bicarbonate, L-glutamine. The cells were harvested and transiently transfected with TEAD-responsive element luciferase reporter. Transfected cells were plated in 384-well plate containing pre-diluted compounds. After 24 hours incubation at 37° C./5% CO2, assay plates were cooled to room temperature and levelled to an equal volume per well, prior to the addition of 25 uL luciferase substrate SteadyLite (Perkin Elmer)/well. The plate was shaken for 10 min at 600 rpm, centrifuged for 1 min at 500 rpm and measured with an Envision reader (PerkinElmer). The amount of relative light units produced by the TEAD reporter was used to calculate the percentage of inhibition.
The percent of reporter inhibition was calculated in the presence of a positive control inhibitor (100% inhibition) versus a condition with the presence of the vehicle basal activity of the reporter (0% inhibition). The ability of a test compound to inhibit this activity was determined as: Percentage inhibition=[[…]((RLU determined in the presence of vehicle−RLU determined for sample with test compound present) divided by (RLU determined in the presence of vehicle−RLU determined for sample with positive control inhibitor))]*100.
The activities of example compounds tested are depicted in Table 3. The activity ranges A, B and C refer to IC50 values in the reporter gene assay as follows: “A”: IC50<1 μM; “B”: 1 μM≤IC50≤10 μM and “C”: IC50>10 μM; NT=not tested.

`O=C1CN2c3ccccc3N(c3ccc(C(F)(F)F)cc3)CC2CN1` (stereo not drawn) [compound 10, 6-(4-(trifluoromethyl)phenyl)-4,4a,5,6-tetrahydro-1H-pyrazino[1,2-a]quinoxalin-2(3H)-one] and `CN1CCN2c3ccccc3N(c3ccc(C(F)(F)F)cc3)CC2C1` (stereo not drawn) [compound 26, 3-methyl-6-(4-(trifluoromethyl)phenyl)-2,3,4,4a,5,6-hexahydro-1H-pyrazino[1,2-a]quinoxaline] fall in the same range of IC50: 1000 to 10000 nM for the first, 1000 to 10000 nM for the second.

`C=CC(=O)NCC1CN(c2ccc(C(F)(F)F)cc2)c2ccccc2N1CC(N)=O` (stereo not drawn) [compound 11, N-((1-(2-amino-2-oxoethyl)-4-(4-(trifluoromethyl)phenyl)-1,2,3,4-tetrahydroquinoxalin-2-yl)methyl)acrylamide] and `C=CC(=O)NCC1CN(c2ccc(C(F)(F)F)cc2)c2ccccc2N1CC(=O)NC` (stereo not drawn) [compound 12, N-((1-(2-(methylamino)-2-oxoethyl)-4-(4-(trifluoromethyl)phenyl)-1,2,3,4-tetrahydroquinoxalin-2-yl)methyl)acrylamide] cannot be ordered by IC50: less than 1000 nM for the first, less than 1000 nM for the second.

`CS(=O)(=O)N1CCN2c3ccccc3N(c3ccc(C(F)(F)F)cc3)CC2C1` (stereo not drawn) [compound 16, 3-(methylsulfonyl)-6-(4-(trifluoromethyl)phenyl)-2,3,4,4a,5,6-hexahydro-1H-pyrazino[1,2-a]quinoxaline] and `COC(=O)N1CCN2c3ccccc3N(c3ccc(C(F)(F)F)cc3)CC2C1` (stereo not drawn) [compound 20, methyl 6-(4-(trifluoromethyl)phenyl)-1,2,4,4a,5,6-hexahydro-3H-pyrazino[1,2-a]quinoxaline-3-carboxylate] cannot be ordered by IC50: less than 1000 nM for the first, less than 1000 nM for the second.

First: C=CC(=O)NCC1CN(c2ccc(C(F)(F)F)cc2)c2ccccc2N1C(C)=O (stereo not drawn) [compound 18, N-((1-acetyl-4-(4-(trifluoromethyl)phenyl)-1,2,3,4-tetrahydroquinoxalin-2-yl)methyl)acrylamide]
Second: C=CC(=O)NCC1CN(c2ccc(C(F)(F)F)cc2)c2ccccc2N1S(C)(=O)=O (stereo not drawn) [compound 23, N-((1-(methylsulfonyl)-4-(4-(trifluoromethyl)phenyl)-1,2,3,4-tetrahydroquinoxalin-2-yl)methyl)acrylamide]
The IC50 of the first is higher: 1000 to 10000 nM for the first, less than 1000 nM for the second. The second is the more potent here.

Compared with `CC(=O)NCC1CN(c2ccc(C(F)(F)F)cc2)c2ccccc2N1C` (stereo not drawn) [compound 19, N-((1-methyl-4-(4-(trifluoromethyl)phenyl)-1,2,3,4-tetrahydroquinoxalin-2-yl)methyl)acetamide], `C=CC(=O)NCC1CN(c2ccc(C(F)(F)F)cc2)c2cccnc2N1C` (stereo not drawn) [compound 27, N-((4-methyl-1-(4-(trifluoromethyl)phenyl)-1,2,3,4-tetrahydropyrido[2,3-b]pyrazin-3-yl)methyl)acrylamide] is lower in IC50: 1000 to 10000 nM for the first, less than 1000 nM for the second.

`C=CC(=O)N1CCN2CCN(c3ccc(C(F)(F)F)cc3)CC2C1` (stereo not drawn) [compound 21, 1-(8-(4-(trifluoromethyl)phenyl)octahydro-2H-pyrazino[1,2-a]pyrazin-2-yl)prop-2-en-1-one] and `C=CC(=O)N1CCN2CC(=O)N(c3ccc(C(F)(F)F)cc3)CC2C1` (stereo not drawn) [compound 33, 8-acryloyl-2-(4-(trifluoromethyl)phenyl)-hexahydro-2H-pyrazino[1,2-a]pyrazin-3(4H)-one] cannot be ordered by IC50: less than 1000 nM for the first, less than 1000 nM for the second.

`Cc1nnc(N2CCN3c4ccccc4N(c4ccc(C(F)(F)F)cc4)CC3C2)o1` (stereo not drawn) [compound 24, 2-methyl-5-(6-(4-(trifluoromethyl)phenyl)-1,2,4,4a,5,6-hexahydro-3H-pyrazino[1,2-a]quinoxalin-3-yl)-1,3,4-oxadiazole] and `FC(F)(F)c1ccc(N2CC3CN(c4ncco4)CCN3c3ccccc32)cc1` (stereo not drawn) [compound 25, 2-(6-(4-(trifluoromethyl)phenyl)-1,2,4,4a,5,6-hexahydro-3H-pyrazino[1,2-a]quinoxalin-3-yl)oxazole] cannot be ordered by IC50: greater than 10000 nM for the first, greater than 10000 nM for the second.

`O=Cc1ccc(CN2CCN3c4ccccc4N(c4ccc(C(F)(F)F)cc4)CC3C2)cc1O` (stereo not drawn) [compound 30, 2-hydroxy-4-((6-(4-(trifluoromethyl)phenyl)-1,2,4,4a,5,6-hexahydro-3H-pyrazino[1,2-a]quinoxalin-3-yl)methyl)benzaldehyde] and `O=C(O)CN1CCN2c3ccccc3N(c3ccc(C(F)(F)F)cc3)CC2C1` (stereo not drawn) [compound 31, 2-(6-(4-(trifluoromethyl)phenyl)-1,2,4,4a,5,6-hexahydro-3H-pyrazino[1,2-a]quinoxalin-3-yl)acetic acid] fall in the same range of IC50: 1000 to 10000 nM for the first, 1000 to 10000 nM for the second.

`CC(=O)N1CCN2c3nccnc3N(c3ccc(C(F)(F)F)cc3)CC2C1` (stereo not drawn) [compound 40, 1-(5-(4-(trifluoromethyl)phenyl)-5,6,6a,7,9,10-hexahydro-8H-dipyrazino[1,2-a:2′,3′-e]pyrazin-8-yl)ethan-1-one] and `C=CC(=O)N1CCN2c3nccnc3N(c3ccc(C(F)(F)F)cc3)CC2C1` (stereo not drawn) [compound 41, 1-(5-(4-(trifluoromethyl)phenyl)-5,6,6a,7,9,10-hexahydro-8H-dipyrazino[1,2-a:2′,3′-e]pyrazin-8-yl)prop-2-en-1-one] cannot be ordered by IC50: less than 1000 nM for the first, less than 1000 nM for the second.

First: C=CC(=O)N1CCN2C(C1)CN(c1ccc(C(F)(F)F)cc1)C1C2C1(Cl)Cl (stereo not drawn) [compound 43, 1-(1,1-dichloro-2-(4-(trifluoromethyl)phenyl)octahydrocyclopropa[e]pyrazino[1,2-a]pyrazin-5(1H)-yl)prop-2-en-1-one]
Second: CC(=O)N1CCN2C(=O)CN(c3ccc(C(F)(F)F)cc3)CC2C1 (stereo not drawn) [compound 44, 8-acetyl-2-(4-(trifluoromethyl)phenyl)octahydro-4H-pyrazino[1,2-a]pyrazin-4-one]
The IC50 of the first is lower: less than 1000 nM for the first, greater than 10000 nM for the second.

`CNS(=O)(=O)N1CCN2c3ncccc3N(c3ccc(C(F)(F)F)cc3)CC2C1` (stereo not drawn) [compound 45, N-methyl-5-(4-(trifluoromethyl)phenyl)-5,6,6a,7,9,10-hexahydro-8H-pyrazino[1,2-a]pyrido[3,2-e]pyrazine-8-sulfonamide] and `CNC(=O)N1CCN2c3ncccc3N(c3ccc(C(F)(F)F)cc3)CC2C1` (stereo not drawn) [compound 52, N-methyl-5-(4-(trifluoromethyl)phenyl)-5,6,6a,7,9,10-hexahydro-8H-pyrazino[1,2-a]pyrido[3,2-e]pyrazine-8-carboxamide] cannot be ordered by IC50: less than 1000 nM for the first, less than 1000 nM for the second.

`O=C(C1CC1)N1CCN2c3ncccc3N(c3ccc(C(F)(F)F)cc3)CC2C1` (stereo not drawn) [compound 46, Cyclopropyl(5-(4-(trifluoromethyl)phenyl)-5,6,6a,7,9,10-hexahydro-8H-pyrazino[1,2-a]pyrido[3,2-e]pyrazin-8-yl)methanone] and `CC(C)C(=O)N1CCN2c3ncccc3N(c3ccc(C(F)(F)F)cc3)CC2C1` (stereo not drawn) [compound 47, 2-methyl-1-(5-(4-(trifluoromethyl)phenyl)-5,6,6a,7,9,10-hexahydro-8H-pyrazino[1,2-a]pyrido[3,2-e]pyrazin-8-yl)propan-1-one] cannot be ordered by IC50: less than 1000 nM for the first, less than 1000 nM for the second.

`C=CC(=O)NCC1CN(c2ccc(C(F)(F)F)cc2)c2cccnc2O1` (stereo not drawn) [compound 48, N-((1-(4-(trifluoromethyl)phenyl)-2,3-dihydro-1H-pyrido[2,3-b][1,4]oxazin-3-yl)methyl)acrylamide] and `CC(=O)NCC1CN(c2ccc(C(F)(F)F)cc2)c2cccnc2O1` (stereo not drawn) [compound 49, N-((1-(4-(trifluoromethyl)phenyl)-2,3-dihydro-1H-pyrido[2,3-b][1,4]oxazin-3-yl)methyl)acetamide] cannot be ordered by IC50: less than 1000 nM for the first, less than 1000 nM for the second.

Compound `FC(F)(F)c1ccc(N2CCN(Cc3nnc[nH]3)c3ccccc32)cc1` [compound 50, 1-((4H-1,2,4-triazol-3-yl)methyl)-4-(4-(trifluoromethyl)phenyl)-1,2,3,4-tetrahydroquinoxaline] has an IC50 of less than 1000 nM.
